These are literature values, as cited in patent US20220347170A1, “Method of Reducing Brow Ache” (priority 2021, published 2022).

For this series the following is noted: aceclidine alone; U.S. Pat. Nos. 9,089,562, 9,833,441 and 9,314,427.

Structures are written as SMILES.

Regarding `CC(=O)OC1CN2CCC1CC2` (stereo not shown) [aceclidine], the brow ache result was “significant brow ache”.
